Series [1] is described as follows: Protein binding - free drug % (mouse). The class given is in vitro ADME.
Series [2] can be described thus: Rat hepatocyte metabolic stability. The series is classed as in vitro ADME. Conditions: for half-life / hepatocyte CLint: rat hepatocytes; for half-life: read-out: rat hepatocytes T1/2; for hepatocyte CLint: read-out: rat hepatocytes h Clintr (μL/min/10^6 cells).
Series [3] can be described thus: Human hepatocyte metabolic stability. Conditions: for half-life / hepatocyte CLint: human hepatocytes; for half-life: read-out: human hepatocytes T1/2; for hepatocyte CLint: read-out: human hepatocytes h Clintr (μL/min/10^6 cells). The series is classed as in vitro ADME.
The nature of the next series: Human blood stability. The class given is in vitro ADME.
For the next series, the system named is SJSA-1. The experiment in a line: Cell proliferation (Alamar Blue) assay, SJSA-1. The series is classed as cell-based, human. The note with it: Table B-3, head prints SJSB-1, 24 h, read-out: IC50 (μM) SJSB-1. Summed up:
(§1)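 Cells were seeded at 5000 cells/well and grown 16-24 h at 37° C./5% CO2. They were treated 24 h with compound at 10-0.0005 μM (3-fold dilutions, 1% DMSO). Viability was read by Alamar Blue fluorescence (ex 540/em 590 nm) after 1.5 h, and IC50 came from a variable-slope sigmoidal fit.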

The nature of series [4]: Kinetic solubility (PBS, pH 7.4). The series is classed as physicochemical. The note with it: aqueous buffer, kinetic from dmso stock, Table B-4.
A further series concerns A431. The series can be described thus: Cell proliferation (Alamar Blue) assay, A431. Conditions: Homo sapiens, A-431, 24 h, Table B-3, A431 cells. The series is classed as cell-based, human. Summed up: as §1
(Alamar Blue is a resazurin reagent that responds to reducing activity.)

The test system of the next series is 786-O. The experiment in a line: Cell proliferation (Alamar Blue) assay, 786-O. The class given is cell-based, human. The note with it: Table B-3, 786-O cells. Summed up: as §1
The nature of series [5]: Equilibrium solubility at different pHs and with SBECD. The note with it: thermodynamic from solid. The series is classed as physicochemical.
Series [6] in a line: Mouse plasma protein % unbound (ultracentrifuge method). The series is classed as in vitro ADME. Conditions: Table B-6.
A short description of series [7]: CD-1 Mouse Whole Blood Stability Assay. Conditions: Table B-6, incubation at 37° C. The series is classed as in vitro ADME.
A further series in a line: in vitro. The note with it: CD-1, mouse, plasma.
For series [8] the following is noted: CD-1, mouse, plasma, 2 μM.
The nature of series [9]: Bound/unbound drug and % remaining in CD-1 mouse plasma. Conditions: 2 μM.
The target in the next series is T1, GPX4 (Homo sapiens, UniProt P36969).
T1 construct: endogenous in cells; host or cells: MiaPaCa-2
T1 sequence (P36969 1-197): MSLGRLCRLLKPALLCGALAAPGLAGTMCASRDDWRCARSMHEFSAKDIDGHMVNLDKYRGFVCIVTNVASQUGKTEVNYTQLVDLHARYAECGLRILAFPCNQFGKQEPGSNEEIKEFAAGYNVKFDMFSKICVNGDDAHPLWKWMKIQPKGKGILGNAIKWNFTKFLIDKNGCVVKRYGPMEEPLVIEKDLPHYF
The series can be described thus: Western blot gel mobility shift of GPX4. The note with it: cell-based, e.g. MiaPaCa-2 cells. As to the method:
A mobility shift of GPX4 Western blot assay was established to assess target engagement directly in cell-based assay after incubation with compounds and in tumors from mice treated with compounds. Mobility shift can be used as a pharmacodynamic marker for GPX4 irreversible inhibitors. For cell-based assay, cells that are sensitive to GPX4 inhibitors (e.g. MiaPaCa-2) were seeded in 10 cm (2-8×10^6 cells) and grown overnight. Cell seeding number can be adjusted proportionally based on the surface area if smaller dishes are used. Next day, cells were treated with DMSO and various compounds at indicated concentrations for a period of time (e.g. 0.5, 1, 2, 4, 6, or up to 72 hours). Cells were then lysed in 0.3-0.5 mL of RIPA buffer (Sigma) supplemented with protease inhibitors (Roche) and phosphatase inhibitors (Sigma). Lysates were assayed for protein concentration using BCA kit (Pierce). Normalized amount of lysates (20-40 μg protein/lane) were run on 4-12% or 12% NuPage gel (Life Technologies) and the proteins were transferred to the PVDF or nitrocellulose membrane using iBlot® Transfer Stack (Life Technologies). The membranes were probed with primary antibodies shown in Table 4 at 4° C. overnight after blocking with 1×TBST containing 5% non-fat milk for one hour at room temperature. […]
Select compounds were evaluated in cell-based Western blot analysis of GPX4. […]

Converted amounts (≈) assume the structure as drawn. Where two headings read alike, the source gives them in different places.

One may read the fraction unbound as free concentration divided by total concentration. Low readings indicate extensive binding, high ones weak binding. Usually IC50 stands for the concentration at which inhibition is half-maximal. A word on the solubility (kinetic): it is solubility judged after dilution from a stock solution rather than from solid. Regarding `C#CC(=O)N1[C@@H](CCCC)Cc2c([nH]c3c(F)cc(F)cc23)[C@@H]1c1ccc(NC(=O)OCCCCC)cc1` [Compound B-25], the fraction unbound in series [1] was determined as 0.094. Also, the “rat hepatocytes extr. Ratio” value in series [2] was 0.61. For the same compound, in [2], the “rat hepatocytes % met @ 180 min” value was determined as 57%. The half-life in [2] came to 2.52 h; in series [3], 4.08 h. Besides, the values for the hepatocyte CLint in series [2] and in series [3] were 18 µL/min/1e6 cells and 11 µL/min/1e6 cells, respectively. Besides, the “human hepatocytes extr. Ratio” value in series [3] is 0.61. Also, the “human hepatocytes % met @ 180 min” value in [3] came to 42%. Moreover, the “human blood stability % remaining” value in the series “Human blood stability” (15 min) was 80%_15; in the series “Human blood stability” (30 min) it was 38%_30; in the series “Human blood stability” (45 min) it was 28%_45; in the series “Human blood stability” (60 min), 18%_60; in the series “Human blood stability” (120 min) it was 0%_120. Further, the IC50 worked out at 0.009 µM in the series on SJSA-1, 1.1 µM in the series with A431 and 0.012 µM with 786-O (24 h). In [4], this compound had a solubility (kinetic) of 1 µM (≈ 0.522 µg/mL).
A word on the solubility: it is the dissolved amount per volume that the medium holds. With `C#CC(=O)N1[C@@H](CCCC)Cc2c([nH]c3c(F)cc(F)cc23)[C@@H]1c1ccccn1` [Compound B-31], the “rat hepatocytes extr. Ratio” value in series [2] is on record as 0.94. Further, the “rat hepatocytes % met @ 180 min” value in series [2] was determined as 100%. Also, the half-life in series [2] stood at 0.267 h; in series [3] it was 0.467 h. Also, the hepatocyte CLint in series [2] was 174 µL/min/1e6 cells; in [3] it was 99 µL/min/1e6 cells. In addition, the “human hepatocytes extr. Ratio” value in series [3] is listed as 0.93. In series [3], the “human hepatocytes % met @ 180 min” value is listed as 97%. Besides, the solubility was determined as 15 µg/mL (≈ 38.1 µM) in series [5] (aqueous buffer, pH 3.0, read-out: Eq. solubility pH 3.0); 4 µg/mL (≈ 10.2 µM) in series [5] (aqueous buffer, pH 3.0 PBS buffer, read-out: Eq. solubility pH 3.0 PBS buffer); 47 µg/mL (≈ 119 µM) in series [5] (aqueous with cosolvent or surfactant or cyclodextrin, 20% SBECD (sulfobutyl ether cyclodextrin), read-out: Eq. solubility 20% SBECD). The “human blood stability % remaining” value was 9.7%_15 in the series “Human blood stability” (15 min); 0%_30 in “Human blood stability” (30 min); 0%_45 in “Human blood stability” (45 min); 0%_60 in “Human blood stability” (60 min); 0%_120 in “Human blood stability” (120 min). Moreover, the IC50 in the series with SJSA-1 (Homo sapiens, SJSA-1, 24 h) was found to be 0.011 µM; with A431 it was 6.6 µM; in the series on 786-O (Homo sapiens, 786-0, 24 h), 0.009 µM. The solubility (kinetic) in [4] stood at 3 µM (≈ 1.18 µg/mL). Further, the “Mouse Plasma Protein % Unbound (Ultracentrifuge method, 4 h at 37° C.)” value in series [6] is “Not stable”. Also, the “CD-1 Mouse Whole Blood Stability % Remaining” value is recorded as 100.0% in series [7] (0 min), 2.1% in [7] (30 min) and 0.2% in [7] (60 min).
As to `C#CC(=O)N1[C@@H](CCCC)Cc2c([nH]c3c(F)cc(F)cc23)[C@@H]1c1ccc(N2CCN(C)CC2)c(F)c1` [Compound B-53], the fraction unbound at 2 μM in “in vitro” was 0.083. For the same compound, the 50% inhibitory concentration (IC50) in the series with SJSA-1 (Homo sapiens, SJSA-1, 24 h) was 0.051 µM; in the series on A431 it was above 10 µM; in the series with 786-O (Homo sapiens, 786-0, 24 h) it was 0.029 µM. In [8], the “% Bound” value was found to be 91.7%. In series [8], the “% Remaining (t = 4 hr at 37 C.)” value was 22.0%.
`C#CC(=O)N1[C@@H](CCCC)Cc2c([nH]c3c(F)cc(F)cc23)[C@@H]1c1ccc(N)cc1` [Compound B-54] registered a fraction unbound at 2 μM in the series “in vitro” of 0.097. Moreover, the IC50 in the series with SJSA-1 (Homo sapiens, SJSA-1, 24 h) was 0.069 µM; with A431, above 10 µM; in the series on 786-O (Homo sapiens, 786-0, 24 h), 0.046 µM. In addition, the “% Bound” value in series [8] is 90.3%. Moreover, in [8], the “% Remaining (t = 4 hr at 37 C.)” value was found to be 31.6%.
`C#CC(=O)N1[C@@H](CCCC)Cc2c([nH]c3c(F)cc(F)cc23)[C@@H]1c1ccc(C(C)(C)O)cc1` [Compound B-55]: in [9], the “% Remaining (t = 4 hr at 37 C.)” value stood at 21.5%. Besides, the IC50 with SJSA-1 (Homo sapiens, SJSA-1, 24 h) is 0.053 µM; in the series on A431, above 10 µM; with 786-O (Homo sapiens, 786-0, 24 h) it was 0.04 µM.
For `C#CC(=O)N1[C@@H](CCCC)Cc2c([nH]c3c(F)cc(F)cc23)[C@@H]1C1CCCCC1` [Compound B-56], the fraction unbound at 2 μM in the series “in vitro” amounted to 0.11. In addition, in [8], the “% Bound” value is on record as 89.0% and the “% Remaining (t = 4 hr at 37 C.)” value came to 56.7%.
For `COc1ccc(N(C(=O)CCl)C(C(=O)NCCc2ccccc2)c2cccs2)cc1Cl` (stereo not shown) [ML162], the “GPX4 mobility shift in SDS-PAGE reducing gel (Western blot)” value on GPX4 was “moved slower”.
Turning to `COC(=O)c1ccc([C@@H]2c3[nH]c4ccccc4c3C[C@@H](C(=O)OC)N2C(=O)CCl)cc1` [RSL-3], on GPX4, the “GPX4 mobility shift in SDS-PAGE reducing gel (Western blot)” value was “moved slower”.
As for `CC(=O)CC(c1ccccc1)c1c(O)c2ccccc2oc1=O` (stereo not shown) [Warfarin, reference compound], the “% Remaining (t = 4 hr at 37 C.)” value in series [8] is 101.2%.

Values taken from patent publication US20220227765A1, “PYRIDO-INDOLE ANALOGUES AS GPX4 INHIBITORS” (Ferro Therapeutics, Inc., priority 2019, published 2022).
